# Test results as given in patent US9265773B2, “Tetracyclic heterocycle compounds and methods of use thereof for the treatment of viral diseases” (priority 2011, dated 2016).
# Assays:
# HCV replicon genotype 1b = experiment: microbe, parasite or virus in culture; assay type: cell-based; conditions: Hepatitis C virus, 96 h, genotype 1b replicon cells, incubated 96 hours, NS3/4A ELISA readout
# HCV replicon genotype 1a = experiment: microbe, parasite or virus in culture; assay type: cell-based; conditions: Hepatitis C virus, 96 h, genotype 1a replicon cells, incubated 96 hours, NS3/4A ELISA readout
structure (smiles),measurement,setting,value
"CNC(=O)c1c(-c2ccc(F)cc2)oc2cc(N(C)S(C)(=O)=O)c(-c3ccc4c(n3)-c3cc5ccccc5n3CO4)cc12 [Compound 1, 2-(4-fluorophenyl)-N-methyl-6-(N-methylmethylsulfonamido)-5-(6H-pyrido[2′,3′:5,6][1,3]oxazino[3,4-a]indol-2-yl)benzofuran-3-carboxamide]",IC50,HCV replicon genotype 1b,4.8 nM
same,IC50,HCV replicon genotype 1a,2.4 nM
"CNC(=O)c1c(-c2ccc(F)cc2)oc2cc(N(C)S(C)(=O)=O)c(-c3ccc4c(n3)-c3cc5c(F)cccc5n3CO4)cc12 [Compound 2, 5-(11-fluoro-6H-pyrido[2′,3′:5,6][1,3]oxazino[3,4-a]indol-2-yl)-2-(4-fluorophenyl)-N-methyl-6-(N-methylmethylsulfonamido)benzofuran-3-carboxamide]",IC50,HCV replicon genotype 1b,2.7 nM
same,IC50,HCV replicon genotype 1a,1.6 nM
CNC(=O)c1c(-c2ccc(F)cc2)oc2cc(N(C)S(C)(=O)=O)c(-c3ccc4c(n3)-c3cc5cc(F)ccc5n3CO4)cc12 [Compound 3],IC50,HCV replicon genotype 1b,3.7 nM
same,IC50,HCV replicon genotype 1a,2 nM
CNC(=O)c1c(-c2ccc(F)cc2)oc2cc(N(C)S(C)(=O)=O)c(-c3ncc4c(n3)-c3cc5ccccc5n3CO4)cc12 [Compound 4],IC50,HCV replicon genotype 1b,1.3 nM
same,IC50,HCV replicon genotype 1a,0.7 nM
CNC(=O)c1c(-c2ccc(F)cc2)oc2cc(N(C)S(C)(=O)=O)c(-c3ncc4c(n3)-c3cc5c(F)cccc5n3CO4)cc12 [Compound 5],IC50,HCV replicon genotype 1b,2 nM
same,IC50,HCV replicon genotype 1a,1 nM
CNC(=O)c1c(-c2ccc(F)cc2)oc2cc(N(C)S(C)(=O)=O)c(-c3ncc4c(n3)-c3cc5cc(F)ccc5n3CO4)cc12 [Compound 6],IC50,HCV replicon genotype 1b,2.3 nM
same,IC50,HCV replicon genotype 1a,1.5 nM
CNC(=O)c1c(-c2ccc(F)cc2)oc2cc(N(C)S(C)(=O)=O)c(-c3ncc4c(n3)-c3cc5ccccc5n3CCO4)cc12 [Compound 7],IC50,HCV replicon genotype 1b,1.6 nM
same,IC50,HCV replicon genotype 1a,2.4 nM
CNC(=O)c1c(-c2ccc(F)cc2)oc2cc(N(C)S(C)(=O)=O)c(-c3ncc4c(n3)-c3cc5c(F)cccc5n3CCO4)cc12 [Compound 8],IC50,HCV replicon genotype 1b,2.1 nM
same,IC50,HCV replicon genotype 1a,1.6 nM
CNC(=O)c1c(-c2ccc(F)cc2)oc2cc(N(C)S(C)(=O)=O)c(-c3ncc4c(n3)-c3cc5ccccc5n3C(C)O4)cc12 (stereo not shown) [Compound 9],IC50,HCV replicon genotype 1b,1.9 nM
same,IC50,HCV replicon genotype 1a,1.1 nM
CNC(=O)c1c(-c2ccc(F)cc2)oc2cc(N(C)S(C)(=O)=O)c(-c3ccc4c(c3)-c3cc5ccccc5n3CO4)cc12 [Compound 10],IC50,HCV replicon genotype 1b,2.4 nM
same,IC50,HCV replicon genotype 1a,1.6 nM
CNC(=O)c1c(-c2ccc(F)cc2)oc2cc(N(C)S(C)(=O)=O)c(-c3cc4c(cn3)OCn3c-4cc4ccccc43)cc12 [Compound 11],IC50,HCV replicon genotype 1b,1.8 nM
same,IC50,HCV replicon genotype 1a,2.1 nM
CNC(=O)c1c(-c2ccc(F)cc2)oc2cc(N(C)S(C)(=O)=O)c(-c3ccc4c(n3)-c3cc5c(C#N)cccc5n3CO4)cc12 [Compound 12],IC50,HCV replicon genotype 1b,1.7 nM
same,IC50,HCV replicon genotype 1a,1.6 nM
CNC(=O)c1c(-c2ccc(F)cc2)oc2cc(N(C)S(C)(=O)=O)c(-c3ccc4c(n3)-c3cc5cc(C#N)ccc5n3CO4)cc12 [Compound 13],IC50,HCV replicon genotype 1b,2.2 nM
same,IC50,HCV replicon genotype 1a,2 nM
CNC(=O)c1c(-c2ccc(F)cc2)oc2cc(N(C)S(C)(=O)=O)c(-c3ccc4c(n3)-c3cc5c(Cl)cccc5n3CO4)cc12 [Compound 14],IC50,HCV replicon genotype 1b,6.2 nM
same,IC50,HCV replicon genotype 1a,3 nM
CNC(=O)c1c(-c2ccc(F)cc2)oc2cc(N(C)S(C)(=O)=O)c(-c3ccc4c(n3)-c3cc5ccc(Cl)cc5n3CO4)cc12 [Compound 15],IC50,HCV replicon genotype 1b,9.9 nM
same,IC50,HCV replicon genotype 1a,9.1 nM
CNC(=O)c1c(-c2ccc(F)cc2)oc2cc(N(C)S(C)(=O)=O)c(-c3cc4c(cn3)OCn3c-4cc4c(F)cccc43)cc12 [Compound 16],IC50,HCV replicon genotype 1b,2.3 nM
same,IC50,HCV replicon genotype 1a,2.1 nM
CNC(=O)c1c(-c2ccc(F)cc2)oc2cc(N(C)S(C)(=O)=O)c(-c3ccc4c(n3)-c3cc5ccc(F)cc5n3CO4)cc12 [Compound 17],IC50,HCV replicon genotype 1b,3.9 nM
same,IC50,HCV replicon genotype 1a,4 nM
CNC(=O)c1c(-c2ccc(F)cc2)oc2cc(N(C)S(C)(=O)=O)c(-c3ccc4c(n3)-c3cc5cccc(C#N)c5n3CO4)cc12 [Compound 18],IC50,HCV replicon genotype 1b,5.4 nM
same,IC50,HCV replicon genotype 1a,9.2 nM
CNC(=O)c1c(-c2ccc(F)cc2)oc2cc(N(C)S(C)(=O)=O)c(-c3ccc4c(n3)-c3cc5cc(F)cc(F)c5n3CO4)cc12 [Compound 19],IC50,HCV replicon genotype 1b,21 nM
same,IC50,HCV replicon genotype 1a,19 nM
CNC(=O)c1c(-c2ccc(F)cc2)oc2cc(N(C)S(C)(=O)=O)c(-c3ccc4c(n3)-c3cc5cccc(F)c5n3CO4)cc12 [Compound 20],IC50,HCV replicon genotype 1b,6.9 nM
same,IC50,HCV replicon genotype 1a,6.7 nM
CNC(=O)c1c(-c2ccc(F)cc2)oc2cc(N(C)S(C)(=O)=O)c(-c3ccc4c(n3)-c3cc5cccc(Cl)c5n3CO4)cc12 [Compound 21],IC50,HCV replicon genotype 1b,13 nM
same,IC50,HCV replicon genotype 1a,14 nM
CNC(=O)c1c(-c2ccc(F)cc2)oc2cc(N(C)S(C)(=O)=O)c(-c3ccc4c(n3)-c3cc5ccc(C#N)cc5n3CO4)cc12 [Compound 22],IC50,HCV replicon genotype 1b,1.9 nM
same,IC50,HCV replicon genotype 1a,3.5 nM
CNC(=O)c1c(-c2ccc(F)cc2)oc2cc(N(C)S(C)(=O)=O)c(-c3cc4c(cn3)OCn3c-4cc4c(C#N)cccc43)cc12 [Compound 23],IC50,HCV replicon genotype 1b,1.2 nM
same,IC50,HCV replicon genotype 1a,0.9 nM
CNC(=O)c1c(-c2ccc(F)cc2)oc2cc(N(C)S(C)(=O)=O)c(-c3cnc4c(c3)-c3cc5ccccc5n3CO4)cc12 [Compound 24],IC50,HCV replicon genotype 1b,5.1 nM
same,IC50,HCV replicon genotype 1a,3 nM
CNC(=O)c1c(-c2ccc(F)cc2)oc2cc(N(C)S(C)(=O)=O)c(-c3cnc4c(n3)-c3cc5c(F)cccc5n3CO4)cc12 [Compound 25],IC50,HCV replicon genotype 1b,1.8 nM
same,IC50,HCV replicon genotype 1a,1 nM
CNC(=O)c1c(-c2ccc(F)cc2)oc2cc(N(C)S(C)(=O)=O)c(-c3ncc4c(n3)-c3cc5c(C#N)cccc5n3CO4)cc12 [Compound 26],IC50,HCV replicon genotype 1b,1.2 nM
same,IC50,HCV replicon genotype 1a,1.1 nM
CNC(=O)c1c(-c2ccc(F)cc2)oc2cc(N(C)S(C)(=O)=O)c(-c3nc4c(cc3F)OCn3c-4cc4c(F)cccc43)cc12 [Compound 27],IC50,HCV replicon genotype 1b,6.1 nM
same,IC50,HCV replicon genotype 1a,2.9 nM
CNC(=O)c1c(-c2ccc(F)cc2)oc2cc(N(C)S(C)(=O)=O)c(-c3ccc4c(n3)-c3cc5c(F)c(F)ccc5n3CO4)cc12 [Compound 28],IC50,HCV replicon genotype 1b,4.5 nM
same,IC50,HCV replicon genotype 1a,2.1 nM
CNC(=O)c1c(-c2ccc(F)cc2)oc2cc(N(C)S(C)(=O)=O)c(-c3nc4c(cc3OC)OCn3c-4cc4ccccc43)cc12 [Compound 29],IC50,HCV replicon genotype 1b,8 nM
same,IC50,HCV replicon genotype 1a,4.8 nM
CNC(=O)c1c(-c2ccc(F)cc2)oc2cc(N(C)S(C)(=O)=O)c(-c3ncc4c(n3)-c3cc5c(F)c(F)ccc5n3CO4)cc12 [Compound 30],IC50,HCV replicon genotype 1b,2.1 nM
same,IC50,HCV replicon genotype 1a,1 nM
CNC(=O)c1c(-c2ccc(F)cc2)oc2cc(N(C)S(C)(=O)=O)c(-c3ccc4c(n3)-c3cc5cc(C#N)cc(F)c5n3CO4)cc12 [Compound 31],IC50,HCV replicon genotype 1b,6.5 nM
same,IC50,HCV replicon genotype 1a,7.2 nM
CNC(=O)c1c(-c2ccc(F)cc2)oc2cc(N(C)S(C)(=O)=O)c(-c3nc4c(cc3C)OCn3c-4cc4c(F)cccc43)cc12 [Compound 32],IC50,HCV replicon genotype 1b,19 nM
same,IC50,HCV replicon genotype 1a,5.7 nM
CNC(=O)c1c(-c2ccc(F)cc2)oc2cc(N(C)S(C)(=O)=O)c(-c3cnc4c(n3)-c3cc5c(C#N)cccc5n3CO4)cc12 [Compound 33],IC50,HCV replicon genotype 1b,1.2 nM
same,IC50,HCV replicon genotype 1a,0.9 nM
CNC(=O)c1c(-c2ccc(F)cc2)oc2cc(N(C)S(C)(=O)=O)c(-c3cnc4c(c3)-c3cc5c(F)cccc5n3CO4)cc12 [Compound 34],IC50,HCV replicon genotype 1b,3.3 nM
same,IC50,HCV replicon genotype 1a,1.4 nM
CNC(=O)c1c(-c2ccc(F)cc2)oc2cc(N(C)S(C)(=O)=O)c(-c3cc4c(cn3)OCn3c-4cc4cc(F)ccc43)cc12 [Compound 35],IC50,HCV replicon genotype 1b,4.7 nM
same,IC50,HCV replicon genotype 1a,2.5 nM
